{"source": "patent US20230159532A1", "about": "“PARATHYROID HORMONE (PTH) RECEPTOR ANTAGONISTS AND USES THEREOF” (Crinetics Pharmaceuticals, Inc., priority 2021, published 2023)", "data": [{"biological_target": "T1, human PTHR1 receptor (Homo sapiens, UniProt Q03431)", "T1 construct": "purchased Eurofins HTS030M", "T1 sequence (Q03431 27-593)": "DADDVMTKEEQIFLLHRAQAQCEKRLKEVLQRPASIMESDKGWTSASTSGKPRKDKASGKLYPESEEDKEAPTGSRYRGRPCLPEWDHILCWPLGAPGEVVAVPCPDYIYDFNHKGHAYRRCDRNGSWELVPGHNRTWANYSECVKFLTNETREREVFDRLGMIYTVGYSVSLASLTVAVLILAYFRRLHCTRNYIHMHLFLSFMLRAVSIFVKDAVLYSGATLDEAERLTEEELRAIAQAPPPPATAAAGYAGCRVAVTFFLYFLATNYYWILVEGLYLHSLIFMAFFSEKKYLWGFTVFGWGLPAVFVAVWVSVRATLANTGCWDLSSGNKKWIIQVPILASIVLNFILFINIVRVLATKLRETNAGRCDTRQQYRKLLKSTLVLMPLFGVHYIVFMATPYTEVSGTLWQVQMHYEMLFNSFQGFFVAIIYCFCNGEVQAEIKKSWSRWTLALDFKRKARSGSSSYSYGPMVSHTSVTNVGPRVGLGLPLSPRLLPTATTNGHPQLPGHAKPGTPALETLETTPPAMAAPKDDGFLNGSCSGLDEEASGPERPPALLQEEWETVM", "test": "Competitive antagonist binding assay for hPTH-R1 (radioactive competition binding, SPA beads)", "settings": "human PTHR1 membranes, [125I]-[Nle8,18,Tyr34]-PTH(1-34) 0.2 nM, 90 minutes at room temperature; read-out: hPTHR1 Ki", "experimental": "Competitive Antagonist Binding Assay Protocol for hPTH-R1 Antagonists:\nThe inhibition of binding to the human PTHR1 receptor was measured in a radioactive competition binding assay using the radiolabeled [^125I]-[NLE^8,18, TYR^34]-parathyroid hormone (1-34) ligand (PerkinElmer Cat# NEX244, custom synthesis) as the probe ligand for the receptor. Briefly, membranes from cells expressing the human PTHR1 (Eurofins Cat# HTS030M) were incubated with SPA beads (PerkinElmer Cat# RPNQ0001) in binding assay buffer [50 mM HEPES (Biopioneer Cat# C0113), 5 mM MgCl2 (Sigma Cat# M8266), 10 mM CaCl2 (Fisher Scientific Cat# BP510), 0.1% BSA (Fisher Scientific Cat# BP1600), 0.01% TritonX-100 (Bio-Rad Cat#161-0407), and protease inhibitors (Pierce Cat# A32963); pH 7.4]. Membranes bound to SPA bead were treated with various dilutions of compounds (final concentrations typically 0-10,000 nM), and 0.2 nM radiolabeled ligand in 96-well isoplates (PerkinElmer Cat#6005040) for 90 minutes at room temperature. The radioactive signal was detected using a MicroBetaTriLux 1450 LSC (PerkinElmer). All data manipulations to determine the Ki values were performed using GraphPad v8 (GraphPad, San Diego Calif.).", "units": {"Ki": "nM"}, "values": [{"smiles": "CNCCNc1cc(F)c(N2C(=O)N(CC(F)(F)F)c3ncc(Cl)cc3-c3ccc(Cl)cc32)c(F)c1", "note": "[1-45, 4,13-dichloro-10-(2,6-difluoro-4-{[2-(methylamino)ethyl]amino}phenyl)-8-(2,2,2-trifluoroethyl)-6,8,10-triazatricyclo[9.4.0.0^2,7]pentadeca-1(11),2(7),3,5,12,14-hexaen-9-one]", "Ki": "< 100"}, {"smiles": "CNCCNc1cc(F)c(N2C(=O)N(CC3CC3)c3ncc(Cl)cc3-c3ccc(Cl)cc32)c(F)c1", "note": "[1-46, 4,13-dichloro-8-(cyclopropylmethyl)-10-(2,6-difluoro-4-{[2-(methylamino)ethyl]amino}phenyl)-6,8,10-triazatricyclo[9.4.0.0^2,7]pentadeca-1(11),2(7),3,5,12,14-hexaen-9-one]", "Ki": "< 100"}, {"smiles": "CC(C)N1C(=O)N(c2c(F)cc(NCCNCCO)cc2F)c2cc(Cl)ccc2-c2cc(Cl)cnc21", "note": "[1-47, 4,13-dichloro-10-[2,6-difluoro-4-({2-[(2-hydroxyethyl)amino]ethyl}amino)phenyl]-8-(propan-2-yl)-6,8,10-triazatricyclo[9.4.0.0^2,7]pentadeca-1(11),2(7),3,5,12,14-hexaen-9-one]", "Ki": "< 100"}, {"smiles": "O=C1N(CC(F)(F)F)c2ncc(Cl)cc2-c2ccc(Cl)cc2N1c1c(F)cc(NCCNCCO)cc1F", "note": "[1-48, 4,13-dichloro-10-[2,6-difluoro-4-({2-[(2-hydroxyethyl)amino]ethyl}amino)phenyl]-8-(2,2,2-trifluoroethyl)-6,8,10-triazatricyclo[9.4.0.0^2,7]pentadeca-1(11),2(7),3,5,12,14-hexaen-9-one]", "Ki": "< 100"}, {"smiles": "CCCN1C(=O)N(c2c(F)cc(NCCNCCO)cc2F)c2cc(Cl)ccc2-c2cc(Cl)cnc21", "note": "[1-49, 4,13-dichloro-10-[2,6-difluoro-4-({2-[(2-hydroxyethyl)amino]ethyl}amino)phenyl]-8-propyl-6,8,10-triazatricyclo[9.4.0.0^2,7]pentadeca-1(11),2(7),3,5,12,14-hexaen-9-one]", "Ki": "< 100"}, {"smiles": "CCN1C(=O)N(c2c(F)cc(NCCC(=O)O)cc2F)c2cc(Cl)ccc2-c2cc(Cl)cnc21", "note": "[1-50, 3-[(4-{4,13-dichloro-8-ethyl-9-oxo-6,8,10-triazatricyclo[9.4.0.0^2,7]pentadeca-1(11),2(7),3,5,12,14-hexaen-10-yl}-3,5-difluorophenyl)amino]propanoic acid]", "Ki": "> 10000"}, {"smiles": "CCN1C(=O)N(c2c(F)cc(NCCNCCO)cc2F)c2cc(Cl)cc(C)c2-c2cc(Cl)cnc21", "note": "[1-51, 4,13-dichloro-10-[2,6-difluoro-4-({2-[(2-hydroxyethyl)amino]ethyl}amino)phenyl]-8-ethyl-15-methyl-6,8,10-triazatricyclo[9.4.0.0^2,7]pentadeca-1(11),2(7),3,5,12,14-hexaen-9-one]", "Ki": "< 100"}, {"smiles": "O=C1N(CC2CC2)c2ncc(Cl)cc2-c2ccc(Cl)cc2N1c1c(F)cc(NCCNCCO)cc1F", "note": "[1-52, 4,13-dichloro-8-(cyclopropylmethyl)-10-[2,6-difluoro-4-({2-[(2-hydroxyethyl)amino]ethyl}amino)phenyl]-6,8,10-triazatricyclo[9.4.0.0^2,7]pentadeca-1(11),2(7),3,5,12,14-hexaen-9-one]", "Ki": "< 100"}, {"smiles": "CCOC(=O)CCCNc1cc(F)c(N2C(=O)N(CC)c3ncc(Cl)cc3-c3ccc(Cl)cc32)c(F)c1", "note": "[1-53, ethyl 4-[(4-{4,13-dichloro-8-ethyl-9-oxo-6,8,10-triazatricyclo[9.4.0.0^2,7]pentadeca-1(11),2(7),3,5,12,14-hexaen-10-yl}-3,5-difluorophenyl)amino]butanoate]", "Ki": "1000 to 10000"}, {"smiles": "CCN1C(=O)N(c2c(F)cc(NCCNC)cc2F)c2cc(C#N)ccc2-c2cc(Cl)cnc21", "note": "[1-54, 4-chloro-10-(2,6-difluoro-4-{[2-(methylamino)ethyl]amino}phenyl)-8-ethyl-9-oxo-6,8,10-triazatricyclo[9.4.0.0^2,7]pentadeca-1(11),2(7),3,5,12,14-hexaene-13-carbonitrile]", "Ki": "< 100"}, {"smiles": "CCN1C(=O)N(c2c(F)cc(NCCNCCO)cc2F)c2cc(C#N)ccc2-c2cc(Cl)cnc21", "note": "[1-55, 4-chloro-10-[2,6-difluoro-4-({2-[(2-hydroxyethyl)amino]ethyl}amino)phenyl]-8-ethyl-9-oxo-6,8,10-triazatricyclo[9.4.0.0^2,7]pentadeca-1(11),2(7),3,5,12,14-hexaene-13-carbonitrile]", "Ki": "< 100"}, {"smiles": "CCN1C(=O)N(c2c(F)cc(NCCNCCO)cc2F)c2cc(Cl)ccc2-c2cc(C(F)(F)F)cnc21", "note": "[1-56, 13-chloro-10-[2,6-difluoro-4-({2-[(2-hydroxyethyl)amino]ethyl}amino)phenyl]-8-ethyl-4-(trifluoromethyl)-6,8,10-triazatricyclo[9.4.0.0^2,7]pentadeca-1(11),2(7),3,5,12,14-hexaen-9-one]", "Ki": "< 100"}, {"smiles": "CCN1C(=O)N(c2c(F)cc(NCCNC)cc2F)c2cc(Cl)ccc2-c2cc(C(F)(F)F)cnc21", "note": "[1-57, 13-chloro-10-(2,6-difluoro-4-{[2-(methylamino)ethyl]amino}phenyl)-8-ethyl-4-(trifluoromethyl)-6,8,10-triazatricyclo[9.4.0.0^2,7]pentadeca-1(11),2(7),3,5,12,14-hexaen-9-one]", "Ki": "< 100"}, {"smiles": "CCN1C(=O)N(c2c(F)cc(NCCNCCCC(=O)O)cc2F)c2cc(C#N)ccc2-c2cc(Cl)cnc21", "note": "[1-58, 4-({2-[(4-{4-chloro-13-cyano-8-ethyl-9-oxo-6,8,10-triazatricyclo[9.4.0.0^2,7]pentadeca-1(11),2(7),3,5,12,14-hexaen-10-yl}-3,5-difluorophenyl)amino]ethyl}amino)butanoic Acid]", "Ki": "< 100"}, {"smiles": "CCN1C(=O)N(c2c(F)cc(NCCNCCF)cc2F)c2cc(Cl)ccc2-c2cc(Cl)cnc21", "note": "[1-59, 4,13-dichloro-10-[2,6-difluoro-4-({2-[(2-fluoroethyl)amino]ethyl}amino)phenyl]-8-ethyl-6,8,10-triazatricyclo[9.4.0.0^2,7]pentadeca-1(11),2(7),3,5,12,14-hexaen-9-one]", "Ki": "< 100"}, {"smiles": "CCN1C(=O)N(c2c(F)cc(NCCNCCO)cc2F)c2cc(Cl)cc(F)c2-c2cc(Cl)cnc21", "note": "[1-60, 4,13-dichloro-10-[2,6-difluoro-4-({2-[(2-hydroxyethyl)amino]ethyl}amino)phenyl]-8-ethyl-15-fluoro-6,8,10-triazatricyclo[9.4.0.0^2,7]pentadeca-1(11),2(7),3,5,12,14-hexaen-9-one]", "Ki": "< 100"}, {"smiles": "CCN1C(=O)N(c2c(F)cc(NCCNC)cc2F)c2cc(Cl)cc(F)c2-c2cc(Cl)cnc21", "note": "[1-61, 4,13-dichloro-10-(2,6-difluoro-4-{[2-(methylamino)ethyl]amino}phenyl)-8-ethyl-15-fluoro-6,8,10-triazatricyclo[9.4.0.0^2,7]pentadeca-1(11),2(7),3,5,12,14-hexaen-9-one]", "Ki": "< 100"}, {"smiles": "CCN1C(=O)N(c2c(F)cc(NCCNC)cc2F)c2cc(C#N)cc(C)c2-c2cc(F)cnc21", "note": "[1-62, 10-(2,6-difluoro-4-{[2-(methylamino)ethyl]amino}phenyl)-8-ethyl-4-fluoro-15-methyl-9-oxo-6,8,10-triazatricyclo[9.4.0.0^2,7]pentadeca-1(11),2(7),3,5,12,14-hexaene-13-carbonitrile]", "Ki": "< 100"}, {"smiles": "CCN1C(=O)N(c2c(F)cc(NCCNCCO)cc2F)c2cc(C#N)cc(C)c2-c2cc(F)cnc21", "note": "[1-63, 10-[2,6-difluoro-4-({2-[(2-hydroxyethyl)amino]ethyl}amino)phenyl]-8-ethyl-4-fluoro-15-methyl-9-oxo-6,8,10-triazatricyclo[9.4.0.0^2,7]pentadeca-1(11),2(7),3,5,12,14-hexaene-13-carbonitrile]", "Ki": "< 100"}, {"smiles": "CCN1C(=O)N(c2c(F)cc(NCCNCCCC(=O)O)cc2F)c2cc(Cl)cc(C)c2-c2cc(F)cnc21", "note": "[1-64, 4-({2-[(4-{13-chloro-8-ethyl-4-fluoro-15-methyl-9-oxo-6,8,10-triazatricyclo[9.4.0.0^2,7]pentadeca-1(11),2(7),3,5,12,14-hexaen-10-yl}-3,5-difluorophenyl)amino]ethyl}amino)butanoic acid]", "Ki": "< 100"}, {"smiles": "CCN1C(=O)N(c2c(F)cc(N3CC[C@@H](N)C3)cc2F)c2cc(Cl)cc(C)c2-c2cc(F)cnc21", "note": "[1-65, 10-{4-[(3R)-3-aminopyrrolidin-1-yl]-2,6-difluorophenyl}-13-chloro-8-ethyl-4-fluoro-15-methyl-6,8,10-triazatricyclo[9.4.0.0^2,7]pentadeca-1(11),2(7),3,5,12,14-hexaen-9-one]", "Ki": "< 100"}]}]}
